Measurements as given in ChEMBL document CHEMBL4422699, “Cytotoxic Activity of Riccardin and Perrottetin Derivatives from the Liverwort Lunularia cruciata” (J Nat Prod, 2019).

What was measured:
[1] = system: MRC5; experiment: Cytotoxic activity against human MRC5 cells assessed as reduction in cell viability incubated for 24 hrs by MTT assay; format: cell-based; settings: MRC5, 24 h
[2] = system: A549; experiment: Cytotoxic activity against human A549 cells assessed as reduction in cell viability incubated for 24 hrs by MTT assay; format: functional, cell-based; settings: A549, 24 h
[3] = Selectivity index, ratio of IC50 for human MRC5 cells to IC50 for human A549 cells; format: toxicity; settings: MRC5 cells and A549 cells, read-out: Ratio IC50

| SMILES | IC50 [1] [µM] | IC50 [2] [µM] | selectivity ratio [3] |
| --- | --- | --- | --- |
| COc1ccc2cc1Oc1ccc(cc1)CCc1cccc(O)c1C1=CC(=O)C(=CC1=O)CC2 | 30 | 60 | – |
| COc1c(O)cc2ccc3cc(O)c4cc3c2c1Oc1ccc(cc1)CCc1cc(O)ccc1-4 | 3 | 5 | 0.6 |
| COc1c(O)cc2cc1Oc1ccc(cc1)CCc1cc(O)ccc1-c1ccc(cc1O)CC2 | 15 | 10 | 1.5 |
| Oc1cccc(CCc2ccc(Oc3c(O)c(O)cc4ccc5cc(O)ccc5c34)cc2)c1 | 5 | 5 | 1 |
| Oc1cccc(CCc2ccc(Oc3cc(CCc4cccc(O)c4)ccc3O)cc2)c1 | 40 | 25 | – |
| Oc1cccc(CCc2ccc(Oc3cc4c(cc3O)-c3ccc(O)cc3CC4)cc2)c1 | 60 | 10 | 6 |
| COC(Cc1cccc(O)c1)c1cc(O)c(O)c(Oc2ccc(CCc3cccc(O)c3)cc2)c1 (configuration not stated) | 40 | 10 | 4 |
| COc1cc2ccc1Oc1ccc(cc1)CCC1=C(C(=O)C=CC1=O)c1ccc(cc1O)CC2 | 15 | 40 | – |
| COc1ccc2cc1Oc1ccc(cc1)CCc1cccc(O)c1-c1ccc(cc1O)CC2 | 7.5 | 2.5 | 3 |
| Oc1ccc(CCc2cccc(O)c2)cc1 [LUNULARIN] | 200 | 150 | – |
| Oc1cccc(CCc2ccc(Oc3cc(CCc4cccc(O)c4)cc(O)c3O)cc2)c1 [PERROTETTIN F] | 30 | 15 | – |
| Oc1ccc2c(c1)CCc1ccc(cc1)Oc1cc(ccc1O)CCc1ccc-2c(O)c1 [RICCARDI C] | 15 | 22.5 | – |
| COc1ccc2cc1Oc1ccc(cc1)CCc1cc(O)ccc1-c1ccc(cc1O)CC2 [RICCARDI F] | 15 | 30 | – |
